{
  "source": "paper PMC11394712",
  "about": "(Foods, 2024)",
  "key": {"[1]": {"biological_target": "α-amylase", "details": "ref 39 (Zheng et al.); cited from earlier work"}, "[2]": {"biological_target": "α-glucosidase", "details": "ref 39 (Zheng et al.); cited from earlier work"}, "[3]": {"tested_on": "porcine pancreatic α-amylase and amyloglucosidase (rice starch digestion)", "assay": "In vitro digestion of genistein–starch mixed system (RDS, SDS, RS contents)", "assay_type": "biochemical, porcine; Aspergillus niger", "experimental": "A particular volume of mixed enzyme solution was prepared in which the specific activities of porcine pancreatic α-amylase and amyloglucosidase were 150 U/mL and 15 U/mL, respectively, and kept at 37 °C. […] This mixed system was added to 25 mL of mixed enzyme solution to receive incubation at 37 °C and 160 r/min in a shaking water bath. Aliquots from the reaction solution were removed at 0, 20, and 120 min, followed by being assayed using a glucose assay kit (Megazyme). Below is the calculation equation of the rapidly digestible starch (RDS), slowly digestible starch (SDS), and resistant starch (RS) contents:(1) RDS(%)=(G20−G0)×0.9/TS×100 (2) SDS(%)=(G120−G20)×0.9/TS×100 (3) RS(%)=TS−RDS−SDS/TS×100\nIn the above equations, G0 represents the content of free glucose within starch; G20 and G120 are the quantities of glucose generated by the mixed enzyme solution after incubation for 20 and 120 min, respectively; TS represents the total starch content in the sample, mg; and 0.9 is the glucose conversion coefficient."}, "[4]": {"biological_target": "T1, α-Amylase from porcine pancreas (Sus scrofa, UniProt P00690)", "T1 construct": "purchased Sigma-Aldrich (Shanghai, China); host or cells: porcine pancreas", "T1 sequence (P00690 16-511)": "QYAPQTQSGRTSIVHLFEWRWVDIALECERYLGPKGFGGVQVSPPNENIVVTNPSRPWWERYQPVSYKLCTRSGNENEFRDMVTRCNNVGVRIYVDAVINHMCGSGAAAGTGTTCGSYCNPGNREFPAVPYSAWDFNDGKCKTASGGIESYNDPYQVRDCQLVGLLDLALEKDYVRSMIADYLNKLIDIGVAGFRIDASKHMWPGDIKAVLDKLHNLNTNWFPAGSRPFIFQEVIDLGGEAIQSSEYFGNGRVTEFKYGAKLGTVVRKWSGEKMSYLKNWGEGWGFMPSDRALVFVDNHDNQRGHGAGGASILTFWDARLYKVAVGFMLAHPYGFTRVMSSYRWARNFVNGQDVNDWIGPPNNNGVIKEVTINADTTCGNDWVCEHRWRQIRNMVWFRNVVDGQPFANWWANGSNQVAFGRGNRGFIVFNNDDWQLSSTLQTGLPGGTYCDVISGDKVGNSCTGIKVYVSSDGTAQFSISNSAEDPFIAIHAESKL", "assay": "Reversibility and enzyme inhibition kinetics, α-amylase (Lineweaver–Burk)", "assay_type": "biochemical", "experimental": "The protocol of Dong et al. was followed with minor modifications (the substrate concentration was different). […] The assay mixture received 10 min of incubation at 37 °C. The mixture underwent 15 min of incubation after being added with starch solution (5 mL, 20 mg/mL), followed by the determination of the absorbance change. […] The mixture of the above solution with 2 mL of pNPG solution (25.0 mmol/L) underwent 15 min of incubation, followed by the measurement of its absorbance at 405 nm.\nThe method in the study of Jiang et al. was modified slightly in this study (the concentration of the inhibitor was different). […] Thereafter, the assay mixture added with 5 mL of 10, 20, 40, 50, and 100 mg/mL of starch solution underwent 15 min of incubation at 37 °C. The assay was performed using a glucose assay kit, together with the identification of the absorbance change at 510 nm.\nThe assay mix was incubated further for 15 min at 37 °C. The experimenters terminated the reaction by adding 6 mL of sodium carbonate solution (0.2 mol/L). The absorbance change of the solution was monitored colorimetrically at 405 nm. […] The equations below were adopted for calculating Km, KIC, and KIN, which, respectively, represented the Michaelis constant, competitive inhibition constant, and non-competitive inhibition constant, in mg/mL [28].\nLineweaver–Burk:(5) 1/V=Km/Vmax⋅1/[S]+1/Vmax"}, "[5]": {"biological_target": "T1, α-Amylase from porcine pancreas", "assay": "Inhibition rate of α-amylase (glucose assay kit, 510 nm)", "assay_type": "biochemical", "procedure": "For α-amylase, the method of Qin et al. [22] was used with slight modifications (the enzymatic reaction time was different). […] A 5 mL aliquot of the above solution was taken to undergo 10 min of incubation at 37 °C, following by the addition of 5 mL of starch solution (20 mg/mL) that was prepared and kept at 37 °C. Following 15 min of incubation at 37 °C, the reaction solution was removed, and a glucose assay kit was employed for assaying the glucose produced after starch hydrolysis through measuring the changes in the absorbance at 510 nm. […] IC50 was calculated using SPSS 25.0 (IBM) nonlinear regression fitting. (4) Inhibition ratio (%) = 1−ODsample−ODsample blank/ODenzyme solution−ODbuffer solution×100 where ODsample, ODsample blank, and ODenzyme solution represent the absorbance of the solution containing both the sample and the enzyme, the sample solution, and the enzyme solution, respectively. ODbuffer solution is the absorbance of the buffer solution."}, "[6]": {"biological_target": "T1, α-Amylase from porcine pancreas", "assay": "Fluorescence quenching, binding and thermodynamic analysis, α-amylase", "details": "for Kd: KD dissociation constant; for Kd / KQ static quenching constant / n binding sites / ΔG free energy change / ΔH enthalpy change / ΔS entropy change / KA apparent quenching rate constant: α-amylase", "experimental": "For fluorescence spectroscopic studies, we followed the protocol in the study of Yu et al.. […] Fluorescence quenching parameters were calculated using the following equations:(8) Fa=Fm⋅e^(Aex+Aem)/2 where Fm denotes the measured fluorescence data; Fa represents the adjusted fluorescence data; and Aex and Aem denote the absorbance at the excitation and emission wavelengths, respectively.\nStern–Volmer dynamic impact quenching equation:(9) F0/F=1+KAτ0[Q]\nBinding and thermodynamic analyses were used for elucidating the mechanisms of enzyme inhibition, including the inhibition of fluorophores by quenchers. […] (13) lg(F0−F/F)=lgKC+nlg[Q] where F0, F, and [Q] are identical to those in Equation (9). KC is the binding constant (L/mol), and n denotes the average number of binding sites. (14) lnKQ2/KQ1=ΔH/R(1/T1−1/T2) (15) ΔG=−RTlnK=ΔH−TΔS"}, "[7]": {"details": "addition of genistein (0.4 mg/mL, 10%) vs starch alone"}, "[8]": {"details": "genistein 0.4 mg/mL (10.0 mg per 100 mg rice starch), 37 °C"}},
  "data": [
    {"smiles": "COc1cc(/C=C/C(=O)O)ccc1O", "note": "[ferulic acid]", "values": [
      {"measurement": "IC50 α-amylase", "setting": "[1]", "result": 622, "unit": "µg/mL"},
      {"measurement": "IC50 α-glucosidase", "setting": "[2]", "result": 866, "unit": "µg/mL"}
    ]},
    {"smiles": "O=c1c(-c2ccc(O)cc2)coc2cc(O)cc(O)c12", "note": "[genistein, Genistein]", "values": [
      {"measurement": "increase of RS content", "setting": "[3]; [7]", "result": 7.18, "unit": "%"},
      {"measurement": "increase of SDS content", "setting": "[3]; [7]", "result": 30.34, "unit": "%"},
      {"measurement": "reduction of RDS content in starch", "setting": "[3]; [7]", "result": 37.52, "unit": "%"},
      {"measurement": "RDS content of the mixed system", "setting": "[3]; [8]", "result": 20.63, "unit": "%"},
      {"measurement": "RS content of the mixed system", "setting": "[3]; [8]", "result": 9.14, "unit": "%"},
      {"measurement": "SDS content of the mixed system", "setting": "[3]; [8]", "result": 70.23, "unit": "%"},
      {"measurement": "type of inhibition of α-amylase", "setting": "[4]; genistein 0, 1, 2 mg/mL", "result": "reversible and non-competitive"},
      {"measurement": "Ki", "setting": "[4]; read-out: KIN (non-competitive inhibition constant), α-amylase (converted)", "result": 50500, "unit": "µM"},
      {"measurement": "IC50", "setting": "[5]", "result": 2550, "unit": "µM"},
      {"measurement": "type of fluorescence quenching of α-amylase", "setting": "[6]; 25, 31, 37 °C", "result": "static quenching"},
      {"measurement": "Kd", "setting": "[6]; 25 °C", "result": 760, "unit": "µM"},
      {"measurement": "Kd", "setting": "[6]; 31 °C", "result": 170, "unit": "µM"},
      {"measurement": "Kd", "setting": "[6]; 37 °C", "result": 110, "unit": "µM"},
      {"measurement": "KQ static quenching constant", "setting": "[6]; 25 °C", "result": 540, "unit": "L/mol"},
      {"measurement": "n binding sites", "setting": "[6]; 25 °C", "result": 1.19},
      {"measurement": "ΔG free energy change", "setting": "[6]; 25 °C", "result": -3.415, "unit": "kcal/mol"},
      {"measurement": "ΔH enthalpy change", "setting": "[6]; 25 °C", "result": -0.11, "unit": "kcal/mol"},
      {"measurement": "ΔS entropy change", "setting": "[6]; 25 °C", "result": 50.65, "unit": "J·mol^−1·K^−1"},
      {"measurement": "KA apparent quenching rate constant", "setting": "[6]; 31 °C", "result": "5.32e+11", "unit": "M⁻¹ s⁻¹"},
      {"measurement": "KQ static quenching constant", "setting": "[6]; 31 °C", "result": 530, "unit": "L/mol"},
      {"measurement": "n binding sites", "setting": "[6]; 31 °C", "result": 0.97},
      {"measurement": "ΔG free energy change", "setting": "[6]; 31 °C", "result": -3.717, "unit": "kcal/mol"},
      {"measurement": "ΔH enthalpy change", "setting": "[6]; 31 °C", "result": -1.44, "unit": "kcal/mol"},
      {"measurement": "ΔS entropy change", "setting": "[6]; 31 °C", "result": 31.97, "unit": "J·mol^−1·K^−1"},
      {"measurement": "KA apparent quenching rate constant", "setting": "[6]; 37 °C", "result": "4.84e+11", "unit": "M⁻¹ s⁻¹"},
      {"measurement": "KQ static quenching constant", "setting": "[6]; 37 °C", "result": 480, "unit": "L/mol"},
      {"measurement": "n binding sites", "setting": "[6]; 37 °C", "result": 0.77},
      {"measurement": "ΔG free energy change", "setting": "[6]; 37 °C", "result": -3.81, "unit": "kcal/mol"},
      {"measurement": "ΔH enthalpy change", "setting": "[6]; 37 °C", "result": -0.504, "unit": "kcal/mol"},
      {"measurement": "ΔS entropy change", "setting": "[6]; 37 °C", "result": 44.59, "unit": "J·mol^−1·K^−1"}
    ]}
  ]
}
